{"source": "patent US20150031697A1", "about": "“METHOD FOR PREVENTING ULTRAVIOLET RADIATION-INDUCED CUTANEOUS DAMAGE AND DEVELOPMENT OF SQUAMOUS CELL CARCINOMAS” (WISCONSIN ALUMNI RESEARCH FOUNDATION, priority 2013, published 2015)", "key": {"[1]": {"system": "UVR-induced hyperplasia", "experiment": "17AAG effect on UVR-induced hyperplasia / epidermal thickness", "format": "in vivo", "conditions": "SKH1 mice, 500 nmol topical after each UVR exposure, 24 hr and 48 hr after fourth UVR, p<0.01", "protocol": "Groups of SKH1 mice were exposed to UVR (2 kJ/m2) three times (Monday, Wednesday, Friday, and Monday) weekly for 6 and 12 weeks. […] Mice were sacrificed at 24 hours after the last UVR treatment. […] For histochemistry, skin specimens were fixed in 10% neutral buffered formalin for 24 hours and embedded in paraffin.\nIn this experiment, groups of SKH1 hairless mice were exposed either four times to UVR (4 kJ/m^2, Monday, Wednesday, Friday, and Monday) or for 6 and 12 weeks (2 kJ/m^2, thrice weekly, Monday, Wednesday, Friday). […] The mice were sacrificed at 24 hr and 48 hr after the fourth UVR exposure. The, dorsal skin was removed and fixed in 10% formalin for the analyses of epidermal hyperplasia."}, "[2]": {"system": "PKCε, Hsp90β, Hsp70", "experiment": "Expression levels in uninvolved skin at end of SCC experiment", "format": "in vivo, SKH-1 hairless mice", "conditions": "SKH hairless mice", "description": "(§1) The SKH-1 hairless mice (6-7 week old) were exposed to UVR. The UVR source was Kodacel-filtered FS-40 sun lamps (approximately 60% UVB and 40% UVA). Mice were exposed to UVR (1.8 kJ/m2) three times weekly (Monday, Wednesday and Friday). The mice in the vehicle group (n=18) received topical treatment of 200 μl vehicle (DMSO:acetone: 1:40 v/v) before and after each UVR exposures. […] Carcinomas were recorded grossly as downward-invading lesions, which were confirmed histologically. […] At the end of the experiment, mice were sacrificed. […] A part of the uninvolved dorsal skin was fixed for in 10% neutral-buffered formalin for histological examination. […] (D): A part of the uninvolved skin was also used to prepare total epidermal lysate to determine expression level of PKCε, Hsp90β, and Hsp70.\n(§2) 4. […] Initial tumor induction experiment was performed with SKH-1 hairless mice."}, "[3]": {"system": "PKCε, Stat3, pStat3Tyr705, pStat3Ser727, Akt, pAktser473", "experiment": "Epidermal protein expression levels after UVR (Western blot)", "format": "in vivo, PKCε-overexpressing transgenic mice", "protocol": "PKCε-overexpressing transgenic mice (line 224) were exposed once to UVR (4 kJ/m2). […] Mice were sacrificed 24 hours post-UVR exposure. There were two mice per treatment point. Dorsal skin comprised excised, epidermal cell lysates prepared as described before (Aziz et al., 2007). […] PKCε-overexpressing transgenic mice (line 224) were exposed once to UVR (2 kJ/m2). […] Mice were sacrificed at 24 hours post-UVR exposure. There were three mice per treatment point. Dorsal skin comprised excised, epidermal cell lysates prepared as described before (Aziz et al., 2007). Pooled epidermal cell lysate was analyzed for PKCε expression level by western blot analysis (B). (C) Shown is the quantitation of the western blot (B).\nMouse skin was excised and scraped to remove subcutaneous fat. The epidermis was scraped off on an ice-cold glass plate, homogenized in lysis buffer [50 mmol/L HEPES, 150 mmol/L NaCl, 10% glycerol, 1% Triton X-100, 1.5 mmol/L MgCl2, 10 μg/m aprotinin, 10 μg/m leupeptin, 1 mmol/L phenylmethylsulfonyl fluoride (PMSF), 200 μmol/L Na3VO4, 200 μmol/L NaF, and 1 mmol/L EGTA (final pH 7.5)]. The homogenate was centrifuged at 14,000 g for 30 min at 4° C. […] The Western blots were quantitated by densitometric analysis using Totallab® Nonlinear Dynamic Image analysis software (Nonlinear USA, Inc., Durham, N.C.). […]"}, "[4]": {"conditions": "cited from earlier work; for bioavailability: literature"}, "[5]": {"experiment": "HPLC analysis of 17AAG in serum and mouse epidermis after topical application", "format": "in vivo, mice (SKH-1 hairless, FVB)", "description": "SKH hairless mice (6-7 weeks old) were exposed to UVR (1.8 kJ/m^2) three times weekly (Monday, Wednesday, and Friday). The mice in the vehicle group (n=3) received topical treatment of 200 μl vehicle (DMSO:acetone: 1:40 v/v) before and after UVR exposures. […] All mice were treated for 25 weeks and sacrificed at 1, 3, 6 and 24 hours following the last UVR exposure. (A) Blood samples were collected to analyze serum 17AAG by HPLC. […] Mice were sacrificed at 6 and 24 hours post-17AAG treatment. (B) Blood samples were collected for serum 17AAG analysis. (C) 17AAG level was also analyzed in the epidermal protein lysate. To prepare epidermal lysate, epidermis was scraped and homogenized in the lysis buffer. […] Each value is an average of duplicate samples. ND: Not detectable. Inset: Chemical structure of 17AAG.\nDorsal areas of the mice (6-7 week old) were shaved and depilated one day before the treatment. […] Blood samples were collected to detect 17AAG in serum. To prepare epidermal lysate, epidermis was removed and homogenized with the lysis buffer. 17-AAG levels in the serum and mouse epidermis were analyzed by HPLC (Shin, et al., 2012).\n1. Topically applied 17AAG is distributed both in epidermis and serum."}, "[6]": {"system": "Hsp90", "conditions": "cited from earlier work"}, "[7]": {"conditions": "cited from earlier work"}, "[8]": {"system": "UVR-induced SCC", "experiment": "UVR-induced development of SCC in SKH-1 hairless mice (tumor induction experiment)", "format": "in vivo", "description": "as §1\n(§3) The PKCε-overexpressing transgenic (TG) and wildtype FVB/N mice (6-7 week old) were exposed to UVR. Mice were exposed to UVR (1.8 kJ/m2) three times weekly (Monday, Wednesday and Friday). The mice in the vehicle group received topical treatment of 200 μl vehicle (DMSO:acetone: 1:40 v/v) before and after UVR each exposure. […] Carcinomas were recorded grossly as downward-invading lesions, which were confirmed histologically. […] There were 11 mice in each group.\n(§4) SKH1 hairless mice were purchased from Charles River Laboratories (Wilmington, Mass.). PKCε transgenic mice were generated as described previously (Reddig et al., 2000). The UVR source was Kodacel-filtered FS-40 sunlamps (approximately 60% UV-B and 40% UV-A). Mice were exposed to UVR from a bank of six Kodacel-filtered sunlamps. UVR dose was routinely measured using UVX-radiometer.\nas §2"}, "[9]": {"system": "UVR-induced hyperplasia", "experiment": "Effect of topically applied Hsp90 inhibitors on UVR-induced hyperplasia (Table 3)", "format": "in vivo, SKH1 mice", "parameters": "Effect on Hyperplasia, Mice 2 or Slide 2, 24 Hr. post UVR / Effect on Hyperplasia, Mice 2 or Slide 2, 48 Hr. post UVR / Effect on Hyperplasia, Mice 1 or Slide 1, 24 Hr. post UVR / Effect on Hyperplasia, Mice 1 or Slide 1, 48 Hr. post UVR: key: +++ (positive effect); −−− (negative effect); −− (less negative)", "conditions": "for Effect on Hyperplasia, Mice 1 or Slide 1, 24 Hr. post UVR / Effect on Hyperplasia, Mice 1 or Slide 1, 48 Hr. post UVR / Effect on Hyperplasia, Mice 2 or Slide 2, 24 Hr. post UVR / Effect on Hyperplasia, Mice 2 or Slide 2, 48 Hr. post UVR: SKH1 mice, topical; for Effect on Hyperplasia, Mice 1 or Slide 1, 24 Hr. post UVR: mouse 1, 24 Hr. post UVR; for Effect on Hyperplasia, Mice 1 or Slide 1, 48 Hr. post UVR: mouse 1, 48 Hr. post UVR; for Effect on Hyperplasia, Mice 2 or Slide 2, 24 Hr. post UVR: mouse 2, 24 Hr. post UVR; for Effect on Hyperplasia, Mice 2 or Slide 2, 48 Hr. post UVR: mouse 2, 48 Hr. post UVR"}, "[10]": {"system": "UVR-induced SCC", "experiment": "UVR-induced development of SCC in PKCε overexpressing transgenic FVB/N mice and wild-type littermates", "format": "in vivo", "description": "as §3, §4"}, "[11]": {"system": "MMP-2, MMP-9, Collagen IV, Hsp70", "experiment": "Skin expression of MMPs, collagen IV, Hsp70 and PCNA after UVR (Western blot)", "format": "in vivo", "conditions": "SKH1 mice", "protocol": "Groups of SKH1 mice were exposed to UVR (2 kJ/m2) three times (Monday, Wednesday, Friday, and Monday) weekly for 6 and 12 weeks. […] Mice were sacrificed at 24 hours after the last UVR treatment. […] To determine morphological and biochemical alteration in skin, the two layers of skin (epidermis and dermis) were isolated separately for analysis of the indicated protein by the western blot analysis.\nMouse skin was excised and scraped to remove subcutaneous fat. The epidermis was scraped off on an ice-cold glass plate, homogenized in lysis buffer [50 mmol/L HEPES, 150 mmol/L NaCl, 10% glycerol, 1% Triton X-100, 1.5 mmol/L MgCl2, 10 μg/m aprotinin, 10 μg/m leupeptin, 1 mmol/L phenylmethylsulfonyl fluoride (PMSF), 200 μmol/L Na3VO4, 200 μmol/L NaF, and 1 mmol/L EGTA (final pH 7.5)]. The homogenate was centrifuged at 14,000 g for 30 min at 4° C. Epidermal cell lysate proteins were fractionated on 10% Criterion™ pre-cast SDS-polyacrylamide gels (Bio-Rad Laboratories, Hercules, Calif.). The protein was transferred to 0.45 μm Hybond-P polyvinylidene difluoride (PVDF) transfer membrane (Amersham Life Sciences, Piscataway, N.J.). The membrane was then incubated with the indicated antibody followed by a horseradish peroxidase secondary antibody (Thermo Scientific), and the detection signal was developed with Amersham's enhanced chemiluminescence reagent and using FOTO/Analyst Luminary Work Station (Fotodyne Inc.). The Western blots were quantitated by densitometric analysis using Totallab® Nonlinear Dynamic Image analysis software (Nonlinear USA, Inc., Durham, N.C.)."}, "[12]": {"target": "Hsp90β-PKCε interaction (Mus musculus, UniProt P11499)", "sequence (P11499 2-724 limits assumed)": "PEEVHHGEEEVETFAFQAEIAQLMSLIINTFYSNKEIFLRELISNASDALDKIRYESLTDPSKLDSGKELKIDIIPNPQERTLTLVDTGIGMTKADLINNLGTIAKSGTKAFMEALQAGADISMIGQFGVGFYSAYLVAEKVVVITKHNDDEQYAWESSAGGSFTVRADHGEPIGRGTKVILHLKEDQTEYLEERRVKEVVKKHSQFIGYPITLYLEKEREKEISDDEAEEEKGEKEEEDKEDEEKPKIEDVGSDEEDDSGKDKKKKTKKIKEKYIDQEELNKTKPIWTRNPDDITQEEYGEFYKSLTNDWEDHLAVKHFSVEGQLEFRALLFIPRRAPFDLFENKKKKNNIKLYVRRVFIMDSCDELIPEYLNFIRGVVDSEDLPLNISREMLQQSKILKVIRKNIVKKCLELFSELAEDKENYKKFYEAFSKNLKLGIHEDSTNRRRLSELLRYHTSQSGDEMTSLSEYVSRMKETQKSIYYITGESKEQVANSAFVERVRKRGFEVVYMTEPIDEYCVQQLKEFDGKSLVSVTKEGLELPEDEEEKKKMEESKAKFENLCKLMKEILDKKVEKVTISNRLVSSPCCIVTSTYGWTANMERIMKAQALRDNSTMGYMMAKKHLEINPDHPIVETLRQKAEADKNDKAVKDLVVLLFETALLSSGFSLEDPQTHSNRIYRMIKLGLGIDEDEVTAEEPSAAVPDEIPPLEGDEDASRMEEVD", "conditions": "500 nmol topical before and after one UVR exposure, 24 hours post-UVR", "protocol": "PKCε-overexpressing transgenic mice (line 224) were exposed once to UVR (4 kJ/m2). […] Mice were sacrificed 24 hours post-UVR exposure. There were two mice per treatment point. Dorsal skin comprised excised, epidermal cell lysates prepared as described before (Aziz et al., 2007). Pooled epidermal cell lysate was analyzed for PKCε-Hsp90β interaction by immunoprecipitation/Western blot analyses (A).\nEpidermal lysates were prepared as for Western blot analysis. 100 μg of epidermal lysate was incubated with 10 μg of the indicated antibody. The total volume of the lysate/antibody mixture was adjusted to 1,000 μL with lysis buffer to allow for appropriate mixing and rotated at 4° C. overnight. Lysate/antibody mixture was then mixed with 50 μL of protein agarose A/G (sc-2003 Santa Cruz Biotechnology, Santa Cruz, Calif.) for 6 h. Lysate/antibody/protein A/G agarose mixture was then centrifuged at 8,000 g for 10 min to sediment the protein A/G agarose. Pellet was washed with 0.1% tween in PBS and then sedimented at 8,000 g for 10 min three times to wash any non-specific binding from the pellet. After three washes the immunoprecipite was then boiled for 5 min in 20 μL Protein Loading Buffer Blue (Cat # EC-886, National Diagnostics, Atlanta, Ga.). Immunoprecipitates were then treated as in Western Blot analysis above."}, "[13]": {"system": "human Hsp90", "conditions": "cited from earlier work"}, "[14]": {"conditions": "in vivo; cited from earlier work"}, "[15]": {"conditions": "clinical trials; cited from earlier work"}, "[16]": {"conditions": "FVB mice, single topical application, 6 hr after treatment"}, "[17]": {"conditions": "SKH-1 hairless mice, 17AAG applied post each UVR exposure only"}, "[18]": {"conditions": "both mice, 24 hr and 48 hr post-UVR"}, "[19]": {"conditions": "500 nmol topical after each UVR, 6 and 12 weeks"}}, "note": "Read-outs that look alike come from different tables or passages of the source. Wherever Effect on Hyperplasia, Mice 1 or Slide 1, 24 Hr. post UVR is given: key: +++ (positive effect); −−− (negative effect); −− (less negative). Wherever Effect on Hyperplasia, Mice 2 or Slide 2, 24 Hr. post UVR is given: key: +++ (positive effect); −−− (negative effect); −− (less negative). Wherever Effect on Hyperplasia, Mice 2 or Slide 2, 48 Hr. post UVR is given: key: +++ (positive effect); −−− (negative effect); −− (less negative).", "data": [{"compound": "C=CCNC1=C2C[C@@H](C)C[C@H](OC)[C@H](O)[C@@H](C)/C=C(\\C)[C@H](OC(N)=O)[C@@H](OC)/C=C\\C=C(/C)C(=O)NC(=CC1=O)C2=O", "note": "[17AAG, 17-allylamino-demethoxygeldanamycin]", "values": [{"measurement": "UVR-induced hyperplasia (epidermal thickness)", "setting": "[1]", "value": "inhibited"}, {"measurement": "Hsp70 level", "setting": "[2]", "value": "increase"}, {"measurement": "Hsp90β and PKCε expression levels", "setting": "[2]", "value": "inhibition"}, {"measurement": "PKCε expression level", "setting": "[3]; 500 nmol topical before and after one UVR exposure, 24 hours post-UVR (FIG. 3A input)", "value": "did not appreciably affect"}, {"measurement": "Stat3, pStat3Ser727, pStat3Tyr705 and pAktser473 expression levels", "setting": "[3]; topical before and after one UVR exposure, 24 hours post-UVR", "value": "inhibited"}, {"measurement": "Half-life", "setting": "[4]; administered intravenous or orally, literature reports", "value": "3 to 4", "unit": "h"}, {"measurement": "bioavailability", "setting": "[4]; given intraperitoneally", "value": "excellent"}, {"measurement": "bioavailability", "setting": "[4]; given orally", "value": "modest"}, {"measurement": "half-life of topically applied 17AAG", "setting": "[5]; 500 nmol in DMSO:acetone 1:40 on skin, inferred from decline at 24 hours", "value": "short"}, {"measurement": "epidermal 17AAG level", "setting": "[5]; [16]", "value": "detectable"}, {"measurement": "serum 17AAG level", "setting": "[5]; [16]", "value": "detectable"}, {"measurement": "serum and epidermal 17AAG levels", "setting": "[5]; SKH-1 and FVB mice, 24 hours post-17AAG treatment", "value": "lowest"}, {"measurement": "time of maximum serum 17AAG level post topical application", "setting": "[5]; SKH-1 hairless mice, topical 500 nmol with three weekly UVR exposures for 25 weeks", "value": 1, "unit": "h"}, {"measurement": "higher affinity for Hsp90 derived from tumor cells compared to Hsp90 from normal cells", "setting": "[6]", "value": 100, "unit": "fold"}, {"measurement": "solubility in water or organic solvent, such as DMSO and ethanol, compared with Geldanamycin", "setting": "[7]", "value": "higher"}, {"measurement": "SCC incidence", "setting": "[8]; SKH hairless mice, 500 nmol topical before and after each UVR exposure", "value": "significantly (p=0.038) inhibited"}, {"measurement": "change in SCC latency", "setting": "[8]; SKH hairless mice, 500 nmol topical before and after each UVR exposure (1.8 kJ/m2, three times weekly)", "value": 17, "unit": "weeks"}, {"measurement": "increase in SCC latency", "setting": "[8]; [17]", "value": 20, "unit": "weeks"}, {"measurement": "inhibition of SCC incidence", "setting": "[8]; [17]", "value": "> 50", "unit": "%"}, {"measurement": "UVR-induced hyperplasia in uninvolved dorsal skin", "setting": "[8]; end of SCC experiment, SKH hairless mice (FIG. 5C)", "value": "inhibition"}, {"measurement": "Effect on Hyperplasia, Mice 1 or Slide 1, 24 Hr. post UVR", "setting": "[9]", "value": "+++"}, {"measurement": "Effect on Hyperplasia, Mice 1 or Slide 1, 48 Hr. post UVR", "setting": "[9]", "value": "+++"}, {"measurement": "Effect on Hyperplasia, Mice 2 or Slide 2, 24 Hr. post UVR", "setting": "[9]", "value": "+++"}, {"measurement": "Effect on Hyperplasia, Mice 2 or Slide 2, 48 Hr. post UVR", "setting": "[9]", "value": "+++"}, {"measurement": "effect on UVR-induced hyperplasia (Table 3)", "setting": "[9]; [18]", "value": "positive effect"}, {"measurement": "UVR-induced development of SCC", "setting": "[10]; PKCε overexpressing transgenic FVB/N mice, topical 500 nmol before and after each UVR, p=0.036", "value": "significantly inhibited"}, {"measurement": "UVR-induced development of SCC", "setting": "[10]; wild-type and PKCε overexpressing transgenic FVB/N mice, topical, p<0.01", "value": "significantly (p<0.01) inhibited"}, {"measurement": "UVR-induced development of SCC", "setting": "[10]; wild-type littermates (FVB/N), topical 500 nmol before and after each UVR, p=0.018", "value": "significantly inhibited"}, {"measurement": "expression level of MMP-2, MMP-9, collagen IV", "setting": "[11]; [19]", "value": "decrease"}, {"measurement": "expression of Hsp70", "setting": "[11]; [19]", "value": "increase"}, {"measurement": "UVR-induced proliferative marker PCNA", "setting": "[11]; topical", "value": "inhibited"}, {"measurement": "UVR-induced PKCε-Hsp90β interaction", "setting": "[12]", "value": "suppressed"}]}, {"compound": "CO[C@H]1/C=C\\C=C(/C)C(=O)NC2=CC(=O)C(NCCN(C)C)=C(C[C@@H](C)C[C@H](OC)[C@H](O)[C@@H](C)/C=C(\\C)[C@@H]1OC(N)=O)C2=O.Cl", "note": "[17DMAG]", "values": [{"measurement": "potency against human Hsp90 relative to 17-AAG", "setting": "[13]", "value": "~2", "unit": "times"}, {"measurement": "oral bioavailability", "setting": "[14]", "value": "excellent"}]}, {"compound": "COC1=C2C[C@@H](C)C[C@H](OC)[C@H](O)[C@@H](C)/C=C(\\C)[C@H](OC(N)=O)[C@@H](OC)/C=C\\C=C(/C)C(=O)NC(=CC1=O)C2=O", "note": "[Geldanamycin]", "values": [{"measurement": "liver toxicity", "setting": "[15]", "value": "liver toxicity"}]}, {"compound": "CCNC(=O)c1cc2c(-c3cc(OCCN4CCCC4)c(Cl)cc3Cl)nc(N)nc2[nH]1", "note": "[NPVBEP800]", "values": [{"measurement": "Effect on Hyperplasia, Mice 1 or Slide 1, 24 Hr. post UVR", "setting": "[9]", "value": "+++"}, {"measurement": "Effect on Hyperplasia, Mice 1 or Slide 1, 48 Hr. post UVR", "setting": "[9]", "value": "+++"}, {"measurement": "Effect on Hyperplasia, Mice 2 or Slide 2, 24 Hr. post UVR", "setting": "[9]", "value": "+++"}, {"measurement": "Effect on Hyperplasia, Mice 2 or Slide 2, 48 Hr. post UVR", "setting": "[9]", "value": "+++"}, {"measurement": "effect on UVR-induced hyperplasia (Table 3)", "setting": "[9]; [18]", "value": "positive effect"}]}, {"compound": "CCNC(=O)c1noc(-c2cc(C(C)C)c(O)cc2O)c1-c1ccc(CN2CCOCC2)cc1", "note": "[NVPAU922]", "values": [{"measurement": "effect on UVR-induced hyperplasia (Table 3)", "setting": "[9]; [18]", "value": "slightly negative effect"}]}, {"compound": "CC1(C)CC(=O)c2c(C(F)(F)F)nn(-c3ccc(C(N)=O)c(N[C@H]4CC[C@H](O)CC4)c3)c2C1", "note": "[SNX-2112]", "values": [{"measurement": "Effect on Hyperplasia, Mice 2 or Slide 2, 24 Hr. post UVR", "setting": "[9]", "value": "+++"}, {"measurement": "Effect on Hyperplasia, Mice 2 or Slide 2, 48 Hr. post UVR", "setting": "[9]", "value": "+++"}, {"measurement": "effect on UVR-induced hyperplasia (Table 3)", "setting": "[9]; mouse 1, 24 hr and 48 hr post-UVR", "value": "no effect"}, {"measurement": "effect on UVR-induced hyperplasia (Table 3)", "setting": "[9]; mouse 2, 24 hr and 48 hr post-UVR", "value": "positive effect"}]}]}
